Test results published in US11696913B2, “Prolonged ectoparasite-controlling agent for animal” (MITSUI CHEMICALS AGRO, INC., priority 2017, dated 2023).
Read-outs that look alike come from different tables or passages of the source.

Columns and labels:
[1] = system: Dermacentor variabilis; experiment: Systemic treatment in-vivo test with American dog tick nymph on rats; settings: Dermacentor variabilis, ip, intraperitoneal injection
Protocol: (§1) Systemic Treatment In-Vivo Test with American Dog Tick Nymph and Cat Flea on Rats
(§2) Type of study and overall study design: The method is a randomized non-blinded efficacy study in accordance with European animal welfare requirements. Rats (Rattus norvegicus) were randomized based on pre-treatment flea counts. The efficacy of treatment was determined by comparison of the flea and tick counts of different treatment groups versus the placebo-treated control group. The experimental unit was the individual study animal. Method and route of administration: The compound was applied in a suitable solvent and carrier (more specifically, added to glycerol formal; in case of poorly soluble compounds, a solvent mixture with up to 25% by volume of N-methyl pyrrolidone may be used.) considering the individual body weight as an intraperitoneal injection.
(§3) Experimental infestation: On the day of treatment and weekly thereafter, 30 ticks (D. variabilis nymphs) were released onto the back of each rat, and 30 fleas (C. felis) were released onto the back of each rat 24 h later.
(§4) Tick and Flea counting: Rats were thoroughly examined and ticks and fleas were manually removed 48 h (±4 h) after tick infestation and 24 h after flea infestation. Live fleas and live attached engorged ticks were counted. In non-evident cases, engorgement status was evaluated by squeezing the tick on a filter paper to find traces of blood as sign for engorgement.

[2] = system: Ctenocephalides felis; experiment: Topical treatment in-vivo test with cat flea on rats; settings: topical spot-on, 25 mg/kg
Protocol: (§5) Topical Treatment In-Vivo Test with American Dog Tick Nymph and Cat Flea on Rats
(§6) Type of study and overall study design: The method is a randomized non-blinded efficacy study in accordance with European animal welfare requirements. Rats (Rattus norvegicus) were randomized based on pre-treatment flea counts. The efficacy of treatment was determined by comparison of the flea and tick counts of different treatment groups versus the placebo-treated control group. The experimental unit was the individual study animal.
(§7) Method and route of administration: The compound was applied in a suitable solvent and carrier (more specifically, added to the following mixture: 33.3% by weight propylene carbonate, […] N-methylpyrrolidone, 0.1% by weight BHA, 0.05% by weight BHT) considering the individual body weight as topical spot-on between the shoulder blades directly onto the skin.
as §3
as §4, with “(+4” for “(±4”

[3] = system: Dermacentor variabilis; experiment: Topical treatment in-vivo test with American dog tick nymph on rats; settings: topical spot-on, 25 mg/kg
Protocol: as §5, §6, §7, §3
as §4, with “(+4” for “(±4”

[4] = system: Ctenocephalides felis; experiment: Systemic treatment in-vivo test with cat flea on rats; settings: Ctenocephalides felis, ip, intraperitoneal injection
Protocol: as §1, §2, §3, §4

[5] = SD 2, read-out: Geometric mean percent reduction in live tick (Dermacentor variabilis) counts compared to untreated control rats
[6] = SD 9, read-out: Geometric mean percent reduction in live tick (Dermacentor variabilis) counts compared to untreated control rats
[7] = SD 16, read-out: Geometric mean percent reduction in live tick (Dermacentor variabilis) counts compared to untreated control rats
[8] = SD 2, read-out: Geometric mean percent reduction in live flea (Ctenocephalides felis) counts compared to untreated control rats
[9] = SD 9, read-out: Geometric mean percent reduction in live flea (Ctenocephalides felis) counts compared to untreated control rats

CN(C(=O)c1ccccc1)c1cccc(C(=O)Nc2c(Br)cc(C(F)(C(F)(F)F)C(F)(F)F)cc2C(F)(F)F)c1F [Compound (B), reference compound]
inhibition in vivo at 2 mg/kg [1, 5]: 75%
inhibition in vivo at 2 mg/kg [1, 6]: 63%
inhibition in vivo at 2 mg/kg [1, 7]: 0%
inhibition in vivo at 10 mg/kg [1, 5]: 100%
inhibition in vivo at 10 mg/kg [1, 6]: 11%
inhibition in vivo at 10 mg/kg [1, 7]: 2%
Geometric mean percent reduction in live flea (Ctenocephalides felis) counts compared to untreated control rats ([2]; SD 2): 84%
Geometric mean percent reduction in live flea (Ctenocephalides felis) counts compared to untreated control rats ([2]; SD 9): 72%
Geometric mean percent reduction in live flea (Ctenocephalides felis) counts compared to untreated control rats ([2]; SD 16): 45%
Geometric mean percent reduction in live tick (Dermacentor variabilis) counts compared to untreated control rats ([3]; SD 2): 58%
Geometric mean percent reduction in live tick (Dermacentor variabilis) counts compared to untreated control rats ([3]; SD 9): 85%
Geometric mean percent reduction in live tick (Dermacentor variabilis) counts compared to untreated control rats ([3]; SD 16): 65%
Geometric mean percent reduction in live tick (Dermacentor variabilis) counts compared to untreated control rats ([3]; SD 23): 4%
inhibition in vivo at 2 mg/kg [4, 8]: 97%
inhibition in vivo at 2 mg/kg [4, 9]: 32%
inhibition in vivo at 10 mg/kg [4, 8]: 100%
inhibition in vivo at 10 mg/kg [4, 9]: 53%
inhibition in vivo at 10 mg/kg ([4]; SD 16, read-out: Geometric mean percent reduction in live flea (Ctenocephalides felis) counts compared to untreated control rats): 6%
